Data: patent US7709498B2, “Quinoline derivatives as antibacterial agents” (Janssen Pharmaceutica N.V., priority 2005, dated 2010)
In brackets after ≈: the same amount, converted by molar mass.

Assays:
Format in all cases: cell-based
[1] = system: Streptococcus pneumoniae (ATCC6305); assay: Microtitre plate assay, IC90 determination, SPN 6305; details: 90% inhibitory concentration for bacterial growth, 37° C., resazurin fluorescence; for IC90: Streptococcus pneumoniae, ATCC6305, 24 h, read-out: IC90 (μg/ml) SPN 6305; for IC90 (μg/ml) SPN 6305: 24 hours
Experimental: (§1) The bacteria used in this study were grown overnight in flasks containing 100 ml Mueller-Hinton Broth (Becton Dickinson—cat. no. 275730) in sterile de-ionized water, with shaking, at 37° C. Stocks (0.5 ml/tube) were stored at −70° C. until use. Bacteria titrations were performed in microtiter plates to detect the TCID50, in which the TCID50 represents the dilution that gives rise to bacterial growth in 50% of inoculated cultures.
(§2) In general, an inoculum level of approximately 100 TCID50 was used for susceptibility testing.
(§3) Flat-bottom, sterile 96-well plastic microtiter plates were filled with 180 μl of sterile deionized water, supplemented with 0.25% BSA. Subsequently, stock solutions (7.8× final test concentration) of compounds were added in 45 μl volumes in column 2. Serial five-fold dilutions (45 μl in 180 μl) were made directly in the microtiter plates from column 2 to reach column 11. Untreated control samples with (column 1) and without (column 12) inoculum were included in each microtiter plate. Depending on the bacteria type, approximately 10 to 60 CFU per well of bacteria inoculum (100 TCID50), in a volume of 100 μl in 2.8× Mueller-Hinton broth medium, was added to the rows A to H, except column 12. The same volume of broth medium without inoculum was added to column 12 in row A to H. The cultures were incubated at 37° C. for 24 hours under a normal atmosphere (incubator with open air valve and continuous ventilation). At the end of incubation, one day after inoculation, the bacterial growth was quantitated fluorometrically. Therefore resazurin (0.6 mg/ml) was added in a volume of 20 μl to all wells 3 hours after inoculation, and the plates were re-incubated overnight. A change in colour from blue to pink indicated the growth of bacteria. The fluorescence was read in a computer-controlled fluorometer (Cytofluor Biosearch) at an excitation wavelength of 530 nm and an emission wavelength of 590 nm. The % growth inhibition achieved by the compounds was calculated according to standard methods. The IC90 (expressed in μg/ml) was defined as the 90% inhibitory concentration for bacterial growth.
(§4) BSU 3639 means Bacillus subtilis (ATCC43639); ECO 25922 means Escherichia coli (ATCC25922); EFA 14506 means Enterococcus faecalis (ATCC14506); EFA 29212 means Enterococcus faecalis (ATCC29212); LMO 49594 means Listeria monocytogenes (ATCC49594); PAE 27853 means Pseudomonas aeruginosa (ATCC27853); SMU 33402 means Streptococcus mutans (ATCC33402); SPN 6305 means Streptococcus pneumoniae (ATCC6305); SPY 8668 means Streptococcus pyogens (ATCC8668); STA 43300 means Staphylococcus aureus (ATCC43300); STA 25923 means Staphylococcus aureus (ATCC25923); STA 29213 means Staphylococcus aureus (ATCC29213); STA RMETH means methicilline resistant Staphylococcus aureus (MRSA) (a clinical isolate from the University of Antwerp). ATCC means American type tissue culture.

[2] = system: Streptococcus mutans (ATCC33402); assay: Microtitre plate assay, IC90 determination, SMU 33402; details: 90% inhibitory concentration for bacterial growth, 37° C., resazurin fluorescence; for IC90 (μg/ml) SMU 33402: 24 hours; for IC90: Streptococcus mutans, ATCC33402, 24 h, read-out: IC90 (μg/ml) SMU 33402
Experimental: as §1, §2, §3, §4

[3] = system: Streptococcus pyogens (ATCC8668); assay: Microtitre plate assay, IC90 determination, SPY 8668; details: 90% inhibitory concentration for bacterial growth, 37° C., resazurin fluorescence; for IC90 (μg/ml) SPY 8668: 24 hours; for IC90: Streptococcus, ATCC8668, 24 h, read-out: IC90 (μg/ml) SPY 8668
Experimental: as §1, §2, §3, §4

[4] = system: Listeria monocytogenes (ATCC49594); assay: Microtitre plate assay, IC90 determination, LMO 49594; details: 90% inhibitory concentration for bacterial growth, 37° C., resazurin fluorescence; for IC90: Listeria monocytogenes, ATCC49594, 24 h, read-out: IC90 (μg/ml) LMO 49594
Experimental: as §1, §2, §3, §4

`COc1nc2ccc(Br)cc2cc1C(c1ccccc1)C(O)(CCN(C)C)c1ccc2c3c(cccc13)CC2` (centres unmarked) [Compound I] showed an IC90 [1] of 11.6 µg/mL (≈ 19.9 µM).
For `COc1nc2ccc(Br)cc2cc1C(c1ccccc1)C(O)(CC[N+](C)(C)[O-])c1ccccc1` (racemic) [Compound 58], the “IC90 (μg/ml) SMU 33402” value [2] was 5.9 µg/mL (≈ 11.3 µM) and the “IC90 (μg/ml) SPY 8668” value [3] was 8.3 µg/mL (≈ 15.9 µM).
`COc1nc2ccc(-c3ccccc3)cc2cc1C(c1ccccc1)C(O)(CCN(C)C)c1cccc2ccccc12` (centres unmarked) [Compound 84] was tested, and the IC90 [4] was 11 µg/mL (≈ 19.9 µM), the IC90 [2] was 11 µg/mL (≈ 19.9 µM) and the IC90 [3] was 11 µg/mL (≈ 19.9 µM). The IC90 [1] was 7 µg/mL (≈ 12.7 µM).
Molecule `COc1nc2ccc(Br)cc2cc1C(c1ccccc1)C(O)(CCN(C)C)c1ccc(F)c(F)c1` (centres unmarked) [Compound 196] has an IC90 [2] of 10.8 µg/mL (≈ 19.9 µM).
In the case of `COc1nc2ccc(Br)cc2cc1C(c1ccccc1)C(O)(CCN1CCCCC1)c1ccccc1` (centres unmarked) [Compound 47], the “IC90 (μg/ml) SPN 6305” value [1] is reported as 6.9 µg/mL (≈ 12.6 µM).
With `COc1nc2ccc(Br)cc2cc1C(c1ccccc1)C(O)(CCN1CCCCC1)c1ccc2cc(Br)ccc2c1` (centres unmarked) [Compound 166] the IC90 [1] was 16.9 µg/mL (≈ 25.1 µM).
For `COc1nc2ccc(Br)cc2cc1C(c1ccc(Cl)cc1)C(O)(CCN(C)C)c1ccccc1` (centres unmarked) [Compound 37], the “IC90 (μg/ml) SPN 6305” value [1] was 12.1 µg/mL (≈ 22.4 µM).
`CCOc1nc2ccc(Br)cc2cc1C(c1ccccc1)C(O)(CCN(C)C)c1ccccc1` (centres unmarked) [Compound 5] was tested, and the “IC90 (μg/ml) SMU 33402” value [2] was 10.4 µg/mL (≈ 20 µM).
With `COc1nc2ccc(Br)cc2cc1C(c1ccccc1)C(O)(CCN(C)C)c1ccc2c(Br)cccc2c1` (centres unmarked) [Compound 130] the IC90 [2] was 10.1 µg/mL (≈ 15.9 µM).
`COc1nc2ccc(Br)cc2cc1C(c1ccccc1)C(O)(CCN1CCCCC1)c1ccc2ccccc2c1` (centres unmarked) [Compound 128] was tested, and the IC90 [4] was 9.4 µg/mL (≈ 15.8 µM).
With `COc1nc2ccc(Br)cc2cc1C(c1ccccc1)C(O)(CCN(C)C)c1ccccc1` (single isomer, unassigned) [F] the “IC90 (μg/ml) SMU 33402” value [2] was 22.6 µg/mL (≈ 44.7 µM), the “IC90 (μg/ml) SPY 8668” value [3] was 22.6 µg/mL (≈ 44.7 µM) and the “IC90 (μg/ml) SPN 6305” value [1] was 25.3 µg/mL (≈ 50.1 µM).
`COc1nc2ccc(Br)cc2cc1C(c1ccccc1)C(O)(CCN(C)C)c1ccsc1` (centres unmarked) [Compound 24] showed an IC90 [1] of 10.2 µg/mL (≈ 19.9 µM).
For `COc1nc2ccc(Br)cc2cc1C(c1ccccc1)C(O)(CCN1CCN(c2ncccn2)CC1)c1ccc2ccccc2c1` (centres unmarked) [Compound 209], the IC90 [1] was 15.1 µg/mL (≈ 22.4 µM).
Molecule `COc1ccc2cc(C(O)(CCN(C)C)C(c3ccccc3)c3cc4cc(Br)ccc4nc3OC)ccc2c1` (centres unmarked) [Compound 163] has an IC90 [1] of 14.7 µg/mL (≈ 25.1 µM).
For `COc1nc2ccc(Br)cc2cc1C(c1ccc(C)cc1)C(O)(CCN(C)C)c1cccc2ccccc12` (centres unmarked) [Compound 72], the IC90 [2] was 9 µg/mL (≈ 15.8 µM), the IC90 [3] was 11.4 µg/mL (≈ 20 µM) and the IC90 [1] was 14.3 µg/mL (≈ 25.1 µM).
For `COc1nc2ccc(Br)cc2cc1C(c1ccccc1)C(O)(CCN1CCSCC1)c1ccccc1` (racemic) [Compound 55], the “IC90 (μg/ml) SPN 6305” value [1] was 0.6 µg/mL (≈ 1.06 µM).
For `CCN(CCC(O)(c1ccc(F)cc1F)C(c1ccccc1)c1cc2cc(Br)ccc2nc1OC)Cc1ccccc1` (racemic) [Compound C], the “IC90 (μg/ml) SPN 6305” value [1] was 15.9 µg/mL (≈ 25.2 µM).
With `COc1nc2ccc(Br)cc2cc1C(c1ccc(Cl)cc1)C(O)(CCN(C)C)c1cccc2ccccc12` (centres unmarked) [Compound 73] the IC90 [2] was 11.8 µg/mL (≈ 20 µM) and the IC90 [3] was 14.8 µg/mL (≈ 25.1 µM).
In the case of `COc1nc2cc(C)c(Br)cc2cc1C(c1ccccc1)C(O)(CCN(C)C)c1cccc2ccccc12` (racemic) [Compound 226], the “IC90 (μg/ml) SPN 6305” value [1] is reported as 14.3 µg/mL (≈ 25.1 µM).
`COc1nc2ccc(Br)cc2cc1C(c1ccccc1)C(O)(CCN1CCCC1)c1ccc2ccccc2c1` (racemic) [Compound 171] was tested, and the “IC90 (μg/ml) SPY 8668” value [3] was 11.6 µg/mL (≈ 19.9 µM).
For `COc1nc2cc(C)c(Br)cc2cc1C(c1ccccc1)C(O)(CCN(C)C)c1cc(F)cc(F)c1` (racemic) [Compound 227], the “IC90 (μg/ml) SPN 6305” value [1] was 5.0 µg/mL (≈ 9 µM).
`COc1nc2ccc(Br)cc2cc1C(c1ccccc1)C(O)(CC[N+](C)(C)[O-])c1ccccc1` (racemic) [Compound 11] was tested, and the “IC90 (μg/ml) LMO 49594” value ([4]; 24 hours) was 11.7 µg/mL (≈ 22.4 µM), the “IC90 (μg/ml) SMU 33402” value [2] was 10.4 µg/mL (≈ 19.9 µM) and the “IC90 (μg/ml) SPY 8668” value [3] was 11.7 µg/mL (≈ 22.4 µM).
Work on `COc1nc2ccc(Br)cc2cc1C(c1ccccc1)C(O)(CCN(C)C)c1ccc(Cl)cc1` (centres unmarked) [Compound 17] yielded an IC90 [4] of 10.8 µg/mL (≈ 20 µM) and an IC90 [1] of 0.5 µg/mL (≈ 0.926 µM).
